From PubChem BioAssay (NCI) come the findings set out here.

Some test systems named below: 786-0 renal; A549 NSCLC; ACHN renal; COLO 205 colon; HT29 colon; MDA-MB-231 breast; NCI-H226 lung; NCI-H460 lung; OVCAR-5 ovarian; T-47D breast.
Holding throughout (test): growth of human tumour cells (NCI), 48 h

Structures are written as SMILES. “And” between values parts separate entries of the source, which are not always exact repeats. Identical values can stand only once.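 Tested at 5 concentrations; 48 h exposure; 96-well plates; endpoints linearly interpolated, else capped at highest concentration. GI50 marks 50% less growth. TGI denotes the concentration required for complete inhibition of growth.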

As for `O=C1/C(=C/c2ccc([N+](=O)[O-])s2)Oc2ccccc21`, the GI50 in the assay on 786-0 renal is 2.42 µM; in the assay on A549 NSCLC it was 1.66 µM; in the assay on ACHN renal, 0.568 µM; with COLO 205 colon, 1.26 µM; in the assay on HT29 colon it was 0.771 µM; in the assay on MDA-MB-231 breast it was 0.279 µM. Moreover, the GI50 was 2.24 µM in the assay with NCI-H226 lung, 1.51 µM in the assay on NCI-H460 lung, 1.78 µM in the assay on OVCAR-5 ovarian and 0.29 µM in the assay with T-47D breast. For the same compound, the TGI with 786-0 renal stood at 6.29 µM; in the assay on A549 NSCLC, 3.88 µM; with ACHN renal, 1.77 µM; in the assay with COLO 205 colon, 2.66 µM; with HT29 colon, 4.67 µM; in the assay on MDA-MB-231 breast it was 0.818 µM. Moreover, the TGI in the assay with NCI-H226 lung stood at 5.75 µM; with NCI-H460 lung, 3.53 µM; with OVCAR-5 ovarian it was 3.53 µM; in the assay with T-47D breast, 4.12 µM.
As for `Cc1ccc(C2SCc3nc4ccc(C(=O)c5ccccc5)cc4n32)cc1` (stereo not given), the GI50 is 13.3 µM with 786-0 renal; 5.99 µM in the assay with A549 NSCLC; 14.1 µM in the assay on ACHN renal; 6.18 µM with COLO 205 colon; 5.73 µM in the assay with HT29 colon; 3.66 µM with MDA-MB-231 breast. Moreover, the GI50 in the assay with NCI-H226 lung was 15.3 µM; with NCI-H460 lung it was 10.7 µM; in the assay on OVCAR-5 ovarian, 21.5 µM; in the assay with T-47D breast, 14 µM. Besides, the TGI in the assay on 786-0 renal was 42.2 µM; in the assay with A549 NSCLC, over 63.3 µM; with ACHN renal it was over 56.9 µM; with COLO 205 colon it was over 100 µM; with HT29 colon, over 100 µM; with MDA-MB-231 breast, 19.4 µM. Further, the TGI in the assay on NCI-H226 lung is 62.3 µM; with NCI-H460 lung, over 75.6 µM; in the assay on OVCAR-5 ovarian, 55.2 µM; in the assay with T-47D breast it was over 63.5 µM.
Take `CCCCCC(=O)OCC(=O)O[C@@H]1C[C@]2(C(C)C)O[C@@]1(C)[C@@H]1CC[C@@H](C)[C@H]1[C@@H]2OC(=O)/C=C/c1ccccc1`: the GI50 in the assay with 786-0 renal was 0.789 µM; with A549 NSCLC, over 60.3 µM; with ACHN renal it was 0.0387 µM; with COLO 205 colon it was over 61.3 µM; with HT29 colon, over 37.4 µM; with MDA-MB-231 breast it was over 57.5 µM. In addition, the GI50 with NCI-H226 lung was 50.6 µM; with NCI-H460 lung, over 60.6 µM; in the assay with OVCAR-5 ovarian it was over 81.7 µM; in the assay with T-47D breast, 10 µM. The TGI with 786-0 renal is 13.6 µM; with A549 NSCLC it was over 100 µM; in the assay on ACHN renal, 10.1 µM; in the assay on COLO 205 colon, over 95.9 µM; with HT29 colon, over 79.1 µM; in the assay with MDA-MB-231 breast it was over 80.5 µM. The TGI with NCI-H226 lung is over 100 µM; in the assay with NCI-H460 lung, over 94.8 µM; in the assay on OVCAR-5 ovarian it was over 100 µM; in the assay with T-47D breast, over 92.7 µM.
With `C#CCOc1ccc2ncnc(Nc3ccc(NC(=O)CCl)cc3)c2c1`, the GI50 is 4.36 µM with 786-0 renal; 13.4 µM in the assay with A549 NSCLC; 11 µM with ACHN renal; 13.8 µM with COLO 205 colon; 4.22 µM in the assay on HT29 colon; 4.51 µM in the assay with MDA-MB-231 breast. Further, the GI50 is 17.8 µM with NCI-H226 lung, 10.6 µM in the assay on NCI-H460 lung, 16.8 µM in the assay with OVCAR-5 ovarian and 8.4 µM in the assay with T-47D breast. In addition, the TGI amounted to 16 µM in the assay with 786-0 renal; 39.7 µM in the assay with A549 NSCLC; 23.3 µM with ACHN renal; 31.5 µM in the assay on COLO 205 colon; 16 µM with HT29 colon; 20 µM in the assay with MDA-MB-231 breast. Further, the TGI in the assay on NCI-H226 lung was 68.6 µM; in the assay with NCI-H460 lung, 30.1 µM; in the assay with OVCAR-5 ovarian, 44.7 µM; in the assay with T-47D breast, 31.9 µM.
Regarding `CCCCN(CCCC)CC(C)(C)C(O)c1ccc(OC)c2ccccc12` (stereo not given), the GI50 with 786-0 renal was 10 µM; in the assay on A549 NSCLC, 11.1 µM; in the assay on ACHN renal, 3.96 µM; in the assay with COLO 205 colon, 3.1 µM; in the assay with HT29 colon it was 0.875 µM; in the assay with MDA-MB-231 breast, 6.76 µM. Besides, the GI50 with NCI-H226 lung was 2.42 µM; with NCI-H460 lung, 3.52 µM; with OVCAR-5 ovarian, 2.4 µM; in the assay on T-47D breast, 3.77 µM. For the same compound, the TGI in the assay on 786-0 renal came to 28 µM; in the assay on A549 NSCLC, 35.3 µM; with ACHN renal, 16 µM; with COLO 205 colon it was 15.8 µM; in the assay on HT29 colon, 13.4 µM; in the assay on MDA-MB-231 breast it was 21.9 µM. Moreover, the TGI in the assay on NCI-H226 lung came out at 9.24 µM; in the assay on NCI-H460 lung it was 16.5 µM; in the assay on OVCAR-5 ovarian it was 16.4 µM; in the assay on T-47D breast, 17 µM.
In the case of `Cc1ccc2[nH]c(C(=O)NN3C(=O)CSC34CCCC(C)C4)c(-c3ccccc3)c2c1` (stereo not given), the GI50 in the assay on 786-0 renal was 19.6 µM; with A549 NSCLC, 15.2 µM; with ACHN renal, 18.3 µM; with COLO 205 colon, 17.5 µM; in the assay on HT29 colon, 13.8 µM; in the assay on MDA-MB-231 breast, 17.2 µM. For the same compound, the GI50 in the assay on NCI-H226 lung is 18.4 µM; in the assay with NCI-H460 lung, 18.1 µM; in the assay on OVCAR-5 ovarian, 18.3 µM; in the assay with T-47D breast, 20.3 µM. In addition, the TGI with 786-0 renal was 39.3 µM; in the assay on A549 NSCLC, 30.5 µM; in the assay on ACHN renal, 36.1 µM; with COLO 205 colon it was 35.4 µM; in the assay with HT29 colon it was 29.4 µM; in the assay with MDA-MB-231 breast it was 34 µM. The TGI was found to be 35.2 µM in the assay on NCI-H226 lung, 38.4 µM with NCI-H460 lung, 34.8 µM in the assay with OVCAR-5 ovarian and 55.2 µM with T-47D breast.
`CC1CCC2C(C)C3C(CC4C5CC=C6CC(OC7OC(CO)C(O)C(OC8OC(CO)C(O)C(O)C8O)C7OC7OC(C)C(O)C(O)C7O)CCC6(C)C5CCC43C)N2C1` (stereo not given): the GI50 in the assay on 786-0 renal, with A549 NSCLC, in the assay on ACHN renal, with COLO 205 colon, with HT29 colon and in the assay with MDA-MB-231 breast was over 2.5 µg/mL in each case. For the same compound, the GI50 in the assay on NCI-H226 lung, in the assay with NCI-H460 lung, in the assay on OVCAR-5 ovarian and with T-47D breast was over 2.5 µg/mL each time. For the same compound, the TGI with 786-0 renal was 20.4 µM and > 2.5 µg/mL; with A549 NSCLC, 16.7 µM and > 2.5 µg/mL; in the assay on ACHN renal it was 20.3 µM and > 2.5 µg/mL; in the assay on COLO 205 colon it was 33 µM and > 2.5 µg/mL; with HT29 colon, 25.6 µM and > 2.5 µg/mL; in the assay on MDA-MB-231 breast, 27.8 µM and > 2.5 µg/mL. Also, the TGI is 44.3 µM and > 2.5 µg/mL in the assay on NCI-H226 lung; 37.6 µM and > 2.5 µg/mL in the assay with NCI-H460 lung; 28 µM and > 2.5 µg/mL with OVCAR-5 ovarian; 45 µM and > 2.5 µg/mL with T-47D breast.
